The values that follow are results of earlier work, collected in EP1368044B1, “IMMUNOMODULATOR FOR THE MANAGEMENT OF HUMAN IMMUNODEFICIENCY VIRUS (HIV) DISEASE/INFECTION” (Bakulesh, Mafatlal Khamar, priority 2002, dated 2002).

Ends that are not written are not given here.

The data set deals with HIV. The following applies: along with interleukin-2.

With “Thymosin α1: a 28-aminoacid peptide (SDAAVDTSSEITTKDLKEKKEVVEEAEN; ends and bridges not checked; UniProt P06454 2-29, looked up)”, the “efficacy to improve CD4” value is on record as “no significant effect”.
